19 compounds from patent publication US11746103B2, “ALK-5 inhibitors and uses thereof” (Sumitomo Pharma Oncology, Inc., priority 2020, dated 2023) can be followed below.

One assay has as its target ALK-5 (Homo sapiens (Human), UniProt P36897). As to the kind of experiment: LanthaScreen Eu Kinase Binding Assay, ALK-5. The following applies: for IC50: read-out: Kinase Inhibition: ALK5 IC50. The protocol:
Activity determinations and selectivity were conducted by Thermo Fisher Scientific “SelectScreen™ Biochemical Kinase Profiling Service” using their “LanthaScreen™ Eu Kinase Binding Assay Screening” (www.thermofisher.com/selectscreen). Binding of an Alexa Fluor™ conjugate or “tracer” to a kinase is detected by addition of a Eu-labeled anti-tag antibody. Binding of the tracer and antibody to a kinase results in a high degree of FRET, whereas displacement of the tracer with a kinase inhibitor results in a loss of FRET. This assay is carried out by mixing the compound tested with the reagents and reading, no development step is required. Life Technologies' Kinase Tracers are based on ATP-competitive kinase inhibitors, making them suitable for detection of any compounds that bind to the ATP site. Inhibitors that bind the ATP site include both Type I kinase inhibitors, which bind solely to the ATP site, and Type II inhibitors (e.g., Gleevec®/Imatinib, Sorafenib, BIRB-796), which bind to both the ATP site and a second site often referred to as the allosteric site. […] For 10 point titrations, 3-fold serial dilutions are conducted from the starting concentration (see Table 2 below). [table] All Kinase/Antibody Mixtures are diluted to a 2× working concentration in the specified kinase buffer. The 4× AlexaFluor labeled Tracer is prepared in Kinase Buffer. Bar-coded, low volume, white 384-well plate (Greiner Cat. #784207) […] 2. 3.84 μL—Kinase Buffer […] 4. 4.0 μL—4× Tracer 5. 30-second plate shake 6. 60-minute incubation at room temperature 7. […] The LanthaScreen Eu Kinase Binding Assay data is analyzed using the equations in Table 3 for each set of data points. [table] Data generated were plotted using the graphing software XLfit from IDBS. The dose response curve is curve fit to model number 205.
On the technique in general: In TR-FRET formats the signal depends on donor and acceptor labels being close together.

Assay [1] concerns TGF-beta induced SMAD signaling. As to the kind of experiment: RDSR (RD SMAD reporter) Cellular Reporter Assay. Format: cell-based. The settings on record: Homo sapiens; 200 pg/ml rhTGF-beta1, 24 h; read-out: RD-SMAD reporter activity. The source says:
TGF-β signaling is triggered when the activated TGF-β homodimer binds to the TGF-β receptor 2, which in turn leads to the recruitment and phosphorylation of TGF-β receptor 1 (ALK5). Activated TGF-β receptor 1 phosphorylates the signal transduction molecules SMAD2 and SMAD3. These bind to common mediator SMAD4 and translocate to the nucleus where they bind to short conserved DNA sequences called the SMAD binding element and induce the transcription of various target genes. […] Certain example compounds were also or alternatively assayed using the RDSR Cellular Reporter Assay. Overview and Design: The RD SMAD reporter (RDSR) cell line was generated by stabily integrating the SMAD cellular reporter plasmid (Promega, pGL4.48[luc2P/SBE/Hygro]) into the human rhabdomyosarcoma cell line RD (ATCC, CCL-136). Once SMAD signaling is triggered, with, for example, the addition of TGF-β 1, receptor activated SMADs bind the SMAD binding elements (SBEs) leading to the expression of intracellular luciferase. To determine the potency of compounds at inhibiting TGF-beta induced SMAD signaling, the RDSR reporter system was utilized. The rhabdomyosarcoma line RD (ATCC, CCL-136) was transfected with a SMAD reporter vector (Promega, E3671) and a polyclonal stable cell line was selected using hygromycin B. The transfected vector contains three copies of a SMAD-binding element (SBE) that drive transcription of the luciferase reporter gene luc2P (Photinus pyralis). luc2P is a synthetically-derived luciferase sequence with humanized codon optimization that is designed for high expression and reduced anomalous transcription. The luc2P gene contains hPEST, a protein destabilization sequence, which allows luc2P protein levels to respond more quickly than those of luc2 to induction of transcription. The intracellular luciferase is quantified by the addition of equal volume (100 μl) of ONE-GLO substrate (Promega, E6120) and read within ten minutes on the Envision plate reader. The stable RDSR cell line was tested by evaluating the response to human TGF-β1 (R&D Systems, 7754-BH-005) as well as human myostatin (R&D Systems, 788-G8-010/CF) in a concentration dependent manner after twenty-four hours of stimulation. […] For compound evaluation, the tool drugs Galunisertib and Vactosertib were included as positive controls. The tool drugs and the compounds of the invention being tested were all incubated with cells for one hour at 37° C. before stimulation with 200 pg/ml rhTGF-beta1 for twenty-four hours. The activity of the reporter was determined with the addition of ONE-GLO (Promega) substrate and luminescence counts collected on the Envision plate reader (Perkin Elmer). […] The activity of compounds of the invention as determined using this method are reported in the third column of Table 1, below.
Background: A reporter such as luciferase makes a cellular process visible.

Chain of ALK-5 (P36897 34-503): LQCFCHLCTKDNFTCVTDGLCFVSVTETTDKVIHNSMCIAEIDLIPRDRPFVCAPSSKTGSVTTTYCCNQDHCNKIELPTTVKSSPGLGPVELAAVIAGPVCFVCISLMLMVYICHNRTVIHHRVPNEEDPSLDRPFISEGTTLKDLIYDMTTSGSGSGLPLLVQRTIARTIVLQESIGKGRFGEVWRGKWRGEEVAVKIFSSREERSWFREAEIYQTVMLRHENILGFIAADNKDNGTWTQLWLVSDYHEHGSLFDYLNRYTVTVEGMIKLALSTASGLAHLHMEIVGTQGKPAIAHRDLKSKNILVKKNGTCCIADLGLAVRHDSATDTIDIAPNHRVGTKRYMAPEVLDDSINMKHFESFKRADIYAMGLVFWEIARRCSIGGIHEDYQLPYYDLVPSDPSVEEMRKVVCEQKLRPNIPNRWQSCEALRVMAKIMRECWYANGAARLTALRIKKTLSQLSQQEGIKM

Turning to `Cc1cccc2c(Nc3ccnc(Nc4ccc(CN5CCN(C)CC5)cc4)n3)cnnc12` [EX-26, N4-(8-methylcinnolin-4-yl)-N2-(4-((4-methylpiperazin-1-yl)methyl)phenyl)pyrimidine-2,4-diamine], on ALK-5, the “Kinase Selectivity: ALK2 IC50/ ALK5 IC50” value was “(++) (10<ALK2/ALK5<100=[++])” and the IC50 was under 10 nM. The IC50 in assay [1] was under 100 nM.

As to `Cc1cccc2c(Nc3ccnc(Nc4ccc(N5CC6CCC(C5)N6C)cc4)n3)cnnc12` [EX-27, N2-(4-(8-methyl-3,8-diazabicyclo[3.2.1]octan-3-yl)phenyl)-N4-(8-methylcinnolin-4-yl)pyrimidine-2,4-diamine], at ALK-5, the “Kinase Selectivity: ALK2 IC50/ ALK5 IC50” value is “(++) (10<ALK2/ALK5<100=[++])” and the IC50 is under 10 nM. For the same compound, in assay [1], the IC50 was under 100 nM.

With `Cc1cccc2c(Nc3ccnc(Nc4ccc(CN5CCN(C)CC5)c(C(F)(F)F)c4)n3)cnnc12` [EX-28, N4-(8-methylcinnolin-4-yl)-N2-(4-((4-methylpiperazin-1-yl)methyl)-3-(trifluoromethyl)phenyl)pyrimidine-2,4-diamine], on ALK-5, the “Kinase Selectivity: ALK2 IC50/ ALK5 IC50” value was “(++) (10<ALK2/ALK5<100=[++])” and the IC50 is under 10 nM. Also, in assay [1], the IC50 is under 100 nM.

On to `Cc1cccc2c(Nc3ccnc(Nc4ccc(Cl)cc4)n3)cnnc12` [EX-29, N2-(4-chlorophenyl)-N4-(8-methylcinnolin-4-yl)pyrimidine-2,4-diamine], for which, on ALK-5, the “Kinase Selectivity: ALK2 IC50/ ALK5 IC50” value is “(++) (10<ALK2/ALK5<100=[++])” and the IC50 was under 10 nM. The IC50 in assay [1] was under 100 nM.

With `Cc1cccc2c(Nc3ccnc(Nc4cccc(CN5CCNCC5)c4)n3)cnnc12` [EX-31, N4-(8-methylcinnolin-4-yl)-N2-(3-(piperazin-1-ylmethyl)phenyl)pyrimidine-2,4-diamine], at ALK-5, the “Kinase Selectivity: ALK2 IC50/ ALK5 IC50” value was “(+) (≤10=[+])” and the IC50 is under 10 nM. Moreover, the IC50 in assay [1] was under 100 nM.

For the compound `Cc1cccc2c(Nc3nc(Nc4ccc(N5CCN(C)CC5)cc4)ncc3F)cnnc12` [EX-32, 5-fluoro-N4-(8-methylcinnolin-4-yl)-N2-(4-(4-methylpiperazin-1-yl)phenyl)pyrimidine-2,4-diamine], the “Kinase Selectivity: ALK2 IC50/ ALK5 IC50” value on ALK-5 is “(++) (10<ALK2/ALK5<100=[++])”. Besides, the IC50 at ALK-5 was 10 to 100 nM; in assay [1], 100 to 1000 nM.

In the case of `Cc1cccc2c(Nc3ccnc(Nc4ccc(N5CCN(C)CC5)cc4)n3)cnnc12` [EX-33, N4-(8-methylcinnolin-4-yl)-N2-(4-(4-methylpiperazin-1-yl)phenyl)pyrimidine-2,4-diamine], at ALK-5, the “Kinase Selectivity: ALK2 IC50/ ALK5 IC50” value was “(++) (10<ALK2/ALK5<100=[++])” and the IC50 is under 10 nM. Besides, the IC50 in assay [1] was under 100 nM.

With `Cc1cccc2c(Nc3ccnc(Nc4ccc(N5CCN(C)CC5)c(Cl)c4)n3)cnnc12` [EX-34, N2-(3-chloro-4-(4-methyl-piperazin-1-yl)-phenyl)-N4-(8-methylcinnolin-4-yl)pyrimidine-2,4-diamine], on ALK-5, the “Kinase Selectivity: ALK2 IC50/ ALK5 IC50” value was “(++) (10<ALK2/ALK5<100=[++])” and the IC50 is under 10 nM. Moreover, the IC50 in assay [1] is under 100 nM.

Consider `Cc1cccc2c(Nc3ccnc(Nc4cccc(S(N)(=O)=O)c4)n3)cnnc12` [EX-35, 3-((4-((8-methylcinnolin-4-yl)amino)-pyrimidin-2-yl)amino)benzenesulfonamide], for which the “Kinase Selectivity: ALK2 IC50/ ALK5 IC50” value on ALK-5 was “(+) (≤10=[+])”. Moreover, the IC50 on ALK-5 was under 10 nM; in assay [1], under 100 nM.

On to `Cc1cccc2c(Nc3ccnc(Nc4cccc(C5CCNCC5)c4)n3)cnnc12` [EX-36, N4-(8-methylcinnolin-4-yl)-N2-(3-(piperidin-4-yl)phenyl)pyrimidine-2,4-diamine], for which, on ALK-5, the “Kinase Selectivity: ALK2 IC50/ ALK5 IC50” value is “(+) (≤10=[+])” and the IC50 was under 10 nM. Moreover, in assay [1], the IC50 is under 100 nM.

For `Cc1cccc2c(Nc3ccnc(Nc4ccc(N5CCN(CCO)CC5)cc4)n3)cnnc12` [EX-37, 2-(4-(4-((4-((8-methylcinnolin-4-yl)amino)pyrimidin-2-yl)amino)phenyl)piperazin-1-yl)ethan-1-ol], at ALK-5, the “Kinase Selectivity: ALK2 IC50/ ALK5 IC50” value is “(++) (10<ALK2/ALK5<100=[++])”. Besides, the IC50 on ALK-5 was under 10 nM; in assay [1], under 100 nM.

On to `Cc1cccc2c(Nc3ccnc(Nc4ccc(F)c(N5CCOCC5)c4)n3)cnnc12` [EX-38, N2-(4-fluoro-3-morpholinophenyl)-N4-(8-methylcinnolin-4-yl)pyrimidine-2,4-diamine], for which, on ALK-5, the “Kinase Selectivity: ALK2 IC50/ ALK5 IC50” value is “(++) (10<ALK2/ALK5<100=[++])” and the IC50 fell in the range of 10 to 100 nM. Further, the IC50 in assay [1] is under 100 nM.

On to `Cc1cccc2c(Nc3ccnc(Nc4cc(N5CCOCC5)cc(C(F)(F)F)c4)n3)cnnc12` [EX-39, N4-(8-methylcinnolin-4-yl)-N2-(3-morpholino-5-(trifluoromethyl)phenyl)pyrimidine-2,4-diamine], for which, at ALK-5, the “Kinase Selectivity: ALK2 IC50/ ALK5 IC50” value is “(+) (≤10=[+])” and the IC50 was under 10 nM. Moreover, the IC50 in assay [1] was in the range of 100 to 1000 nM.

For `Cc1c(F)ccc2c(Nc3ccnc(Nc4cccc(N5CCOCC5)c4)n3)cnnc12` [EX-40, N4-(7-fluoro-8-methylcinnolin-4-yl)-N2-(3-morpholinophenyl)pyrimidine-2,4-diamine], on ALK-5, the “Kinase Selectivity: ALK2 IC50/ ALK5 IC50” value is “(++) (10<ALK2/ALK5<100=[++])” and the IC50 was under 10 nM. Besides, the IC50 in assay [1] was under 100 nM.

In the case of `Cc1c(F)ccc2c(Nc3ccnc(Nc4ccc(N5CCOCC5)cc4)n3)cnnc12` [EX-41, N4-(7-fluoro-8-methylcinnolin-4-yl)-N2-(4-morpholinophenyl)pyrimidine-2,4-diamine], the “Kinase Selectivity: ALK2 IC50/ ALK5 IC50” value on ALK-5 was “(++) (10<ALK2/ALK5<100=[++])”. Also, the results for the IC50 (at ALK-5; in assay [1]) were under 10 nM and under 100 nM, respectively.

As for `Cc1cccc2c(Nc3ccnc(Nc4cc(F)cc(CN5CCN(C)CC5)c4)n3)cnnc12` [EX-42, N2-(3-fluoro-5-((4-methylpiperazin-1-yl)methyl)phenyl)-N4-(8-methylcinnolin-4-yl)pyrimidine-2,4-diamine], on ALK-5, the “Kinase Selectivity: ALK2 IC50/ ALK5 IC50” value is “(+) (≤10=[+])” and the IC50 is under 10 nM. In assay [1], the IC50 lay in the range of 100 to 1000 nM.

Regarding `Cc1cccc2c(Nc3ccnc(Nc4cc(F)cc(CC5CCN(C)CC5)c4)n3)cnnc12` [EX-43, N2-(3-fluoro-5-((1-methylpiperidin-4-yl)methyl)phenyl)-N4-(8-methylcinnolin-4-yl)pyrimidine-2,4-diamine], on ALK-5, the “Kinase Selectivity: ALK2 IC50/ ALK5 IC50” value was “(+) (≤10=[+])” and the IC50 is under 10 nM. Moreover, in assay [1], the IC50 lay in the range of 100 to 1000 nM.

Consider `Cc1cccc2c(Nc3ccnc(Nc4cc(F)cc(N5CCOCC5)c4)n3)cnnc12` [EX-44, N2-(3-fluoro-5-morpholinophenyl)-N4-(8-methylcinnolin-4-yl)pyrimidine-2,4-diamine], for which, on ALK-5, the “Kinase Selectivity: ALK2 IC50/ ALK5 IC50” value was “(++) (10<ALK2/ALK5<100=[++])” and the IC50 is under 10 nM. Also, the IC50 in assay [1] is under 100 nM.

Consider `Cc1cccc2c(Nc3ccnc(Nc4ccc(N5CC6CC5CN6C)cc4)n3)cnnc12` (stereo not drawn) [EX-45, N2-(4-(5-methyl-2,5-diazabicyclo[2.2.1]heptan-2-yl)phenyl)-N4-(8-methylcinnolin-4-yl)pyrimidine-2,4-diamine], for which, at ALK-5, the “Kinase Selectivity: ALK2 IC50/ ALK5 IC50” value is “(++) (10<ALK2/ALK5<100=[++])” and the IC50 is under 10 nM. For the same compound, the IC50 in assay [1] is under 100 nM.
